Experiment [1] concerns noradrenaline output in the medial prefrontal cortex. The experiment in a line: Microdialysis: noradrenaline output in the medial prefrontal cortex of freely moving rats. The experiment is classed as in vivo, rat. The conditions noted are these: for effect on noradrenaline output in the medial prefrontal cortex: citalopram alone, or low dose of Idazoxan added to citalopram; for NORADRENALINE Medial Prefrontal Cortex, mean values: n = 5. The protocol: (§1) Adult male BK1:WR (Wistar) rats weighing 230-390 g were used in all experiments. Animals arrived at least five days prior to experimental use and were housed (4 per cage [Makrolon IV]) in the animal facility under standard laboratory conditions with a 12 h light/dark cycle with lights on at 6.00 a.m. All experiments were performed between 8.00 a.m. and 6.00 p.m. Food and water were available ad lib. All experiments were approved by, and conducted in accordance with, the local Animal Ethics Committee (Stockholms Norra och Södra Försöksdjursetiska Kommittéer) (permits no. N216/00, N11/00). The probe implantation and dialysis procedure, as well as the biochemical analyses, were similar to those previously described (Hertel et al 1996, […] et al 1999). Anesthetized male BKI:WR (Wistar) rats (B&K Universal, Sollentuna, Sweden; sodium pentobarbital, 60 mg/kg, intraperitoneal; i.p.) were implanted with dialysis probes in the medial prefrontal cortex (mPFC) [AP: +2.6; ML: -0.6; DV: -5.2], relative to bregma and dural surface (Paxinos and Watson 1998). Dialysis occurred through a semipermeable membrane (AN69 Hospal) with an active surface length of 4 mm. Dialysis experiments were conducted approximately 48 h after surgery in freely moving rats. The dialysis probe was perfused with a physiological perfusion solution (147 mM sodium chloride, 3.0 mM potassium chloride, 1.3 mM calcium chloride, 1.0 mM magnesium chloride, and 1.0 mM sodium phosphate, pH 7.4) at a rate of 2.5 μl/min set by a microinfusion pump (Harvard Apparatus, Holliston, Mass.). On-line quantification of noradrenaline (NA) or dopamine (DA) in the dialysate was accomplished by high pressure liquid chromatography coupled to electrochemical detection. The placement of the probe was later verified in slices stained with neutral red. 2-Way Anova (treatment×time) followed by Neuman-Keuls Post Hoc comparison test.

Experiment [2] relates to dopamine output in the medial prefrontal cortex. Kind of experiment: Microdialysis: dopamine output in the medial prefrontal cortex of freely moving rats. In kind it is in vivo, rat. The conditions noted are these: for effect on dopamine output in the medial prefrontal cortex: citalopram alone, or low dose of Idazoxan added to citalopram; for DOPAMINE Medial Prefrontal Cortex, mean values: n = 5. The protocol: as §1

Setting [3] is: awake freely moving rat, low dose of Idazoxan added to citalopram.
The mark [4] stands for this setting: TIME 30 min, after citalopram 5 mg/kg s.c., before saline/idazoxan.
[5] abbreviates: TIME 60 min, after citalopram 5 mg/kg s.c., before saline/idazoxan.
Where [6] appears, read: TIME 90 min, after citalopram 5 mg/kg s.c., before saline/idazoxan.
Setting [7] is: TIME 120 min, citalopram 5 mg/kg s.c., then saline 1 ml/kg or idazoxan 1.5 mg/kg s.c. after the 90 min sample.
Setting [8] is: TIME 150 min, citalopram 5 mg/kg s.c., then saline 1 ml/kg or idazoxan 1.5 mg/kg s.c. after the 90 min sample.
Where [9] appears, read: TIME 180 min, citalopram 5 mg/kg s.c., then saline 1 ml/kg or idazoxan 1.5 mg/kg s.c. after the 90 min sample.
[10] abbreviates: TIME 210 min, citalopram 5 mg/kg s.c., then saline 1 ml/kg or idazoxan 1.5 mg/kg s.c. after the 90 min sample.
The mark [11] stands for this setting: TIME 240 min, citalopram 5 mg/kg s.c., then saline 1 ml/kg or idazoxan 1.5 mg/kg s.c. after the 90 min sample.
The mark [12] stands for this setting: TIME 270 min, citalopram 5 mg/kg s.c., then saline 1 ml/kg or idazoxan 1.5 mg/kg s.c. after the 90 min sample.

Results on two molecules are retold here after patent US20080269306A1, “Antidepressant Medicament Comprising Idazoxan and a Selective Serotonin Reuptake Inhibitor” (ALPHA 2 PHARMACEUTICA AB, priority 2004, published 2008).

`c1ccc2c(c1)OCC(C1=NCCN1)O2` (racemic) [Idazoxan, 2-(1,4-benzodioxan-2-yl)-2-imidazoline]: the “effect on noradrenaline output in the medial prefrontal cortex” value in experiment [1] (awake freely moving rat) was “significant increase”. The “duration of the increase in noradrenaline output” value in experiment [1] (setting [3]) is on record as “approximately 2 hours”. In experiment [2] (awake freely moving rat), the “effect on dopamine output in the medial prefrontal cortex” value was “significant increase”. In experiment [2] (setting [3]), the “duration of the increase in dopamine output” value is recorded as “approximately 2 hours”.

Regarding `CN(C)CCCC1(c2ccc(F)cc2)OCc2cc(C#N)ccc21` (stereo not drawn) [Citalopram + Saline, Citalopram], the “NORADRENALINE Medial Prefrontal Cortex, mean values” in experiment [1] (setting [4]) turned out to be 127.8 % Baseline; in experiment [1] (setting [5]), 118.8 % Baseline; in experiment [1] (setting [6]) it was 105.5 % Baseline; in experiment [1] (setting [7]), 114.6 % Baseline; in experiment [1] (setting [8]), 103.2 % Baseline; in experiment [1] (setting [9]), 81.6 % Baseline. Further, the “NORADRENALINE Medial Prefrontal Cortex, mean values” in experiment [1] (setting [10]) was found to be 88.7 % Baseline; in experiment [1] (setting [11]), 83.7 % Baseline; in experiment [1] (setting [12]), 87.9 % Baseline. Besides, the “effect on noradrenaline output in the medial prefrontal cortex” value in experiment [1] (awake freely moving rat) is “does not per se affect”. Moreover, the “DOPAMINE Medial Prefrontal Cortex, mean values” is listed as 129.4 % Baseline in experiment [2] (setting [4]); 104.5 % Baseline in experiment [2] (setting [5]); 109.1 % Baseline in experiment [2] (setting [6]); 127.8 % Baseline in experiment [2] (setting [7]); 110.3 % Baseline in experiment [2] (setting [8]); 97.7 % Baseline in experiment [2] (setting [9]). For the same molecule, the “DOPAMINE Medial Prefrontal Cortex, mean values” is given as 88.0 % Baseline in experiment [2] (setting [10]), 104.5 % Baseline in experiment [2] (setting [11]) and 94.1 % Baseline in experiment [2] (setting [12]). Moreover, in experiment [2] (awake freely moving rat), the “effect on dopamine output in the medial prefrontal cortex” value is “does not per se affect”.
